Test results from ChEMBL document CHEMBL1201862, “PubChem BioAssay data set” (2004).
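1) Cells in 96-well plates. 2) Compound, 48 h, 5 concentrations. 3) Linear interpolation between surrounding doses. 4) Unreached endpoint = highest concentration. Here, GI50 denotes the concentration required for 50% inhibition of growth.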 The source made the active and inactive calls. Rule as the data show it: active = GI50 up to about 1.1 µM and inactive = higher.

Legend:
Experiment in all cases: NCI anticancer screen, dose series, 48 h
CCRF-CEM = tested on: CCRF-CEM
OVCAR-3 = tested on: OVCAR-3
SNB-19 = tested on: SNB-19
A498 = tested on: A498
HOP-92 = tested on: HOP-92
HCT-116 = tested on: HCT-116
786-0 = tested on: 786-0
SF-268 = tested on: SF-268
SW-620 = tested on: SW-620
COLO 205 = tested on: COLO 205
SK-MEL-28 = tested on: SK-MEL-28
NCI-H522 = tested on: NCI-H522
TK-10 = tested on: TK-10
HL-60 = tested on: HL-60
MDA-MB-231 = tested on: MDA-MB-231
HOP-62 = tested on: HOP-62
T47D = tested on: T47D
Malme-3M = tested on: Malme-3M
NCI/ADR-RES = tested on: NCI/ADR-RES

Row | Compound | GI50 (CCRF-CEM) | GI50 (OVCAR-3) | GI50 (SNB-19) | GI50 (A498) | GI50 (HOP-92) | GI50 (HCT-116) | GI50 (786-0) | GI50 (SF-268) | GI50 (SW-620) | GI50 (COLO 205) | GI50 (SK-MEL-28) | GI50 (NCI-H522) | GI50 (TK-10) | GI50 (HL-60) | GI50 (MDA-MB-231) | GI50 (HOP-62) | GI50 (T47D) | GI50 (Malme-3M) | GI50 (NCI/ADR-RES)
1 | CC(C)c1cc(C(F)(F)F)nc(NNc2nc(C(C)C)cc(C(F)(F)F)n2)n1 | > 100 µM (inactive) | 17.1 µM (inactive) | 41.7 µM (inactive) | > 100 µM (inactive) | > 100 µM (inactive) | 93.8 µM (inactive) | 28.4 µM (inactive) | > 100 µM (inactive) | > 100 µM (inactive) | > 100 µM (inactive) | > 100 µM (inactive) | > 100 µM (inactive) | 19.1 µM (inactive) | > 100 µM (inactive) | 65.3 µM (inactive) | 13.2 µM (inactive) | > 100 µM (inactive) | 49 µM (inactive) | > 100 µM (inactive)
2 | CCCOc1cc2c(cc1O)CC[C@@H]1[C@@H]2CC[C@]2(C)[C@@H](O)CC[C@@H]12 | 1.56 µM (inactive) | 1.55 µM (inactive) | 6.71 µM (inactive) | 5.37 µM (inactive) | 10.3 µM (inactive) | 1.64 µM (inactive) | 3.63 µM (inactive) | 6.3 µM (inactive) | 1 µM (active) | 12 µM (inactive) | 8.26 µM (inactive) | 0.383 µM (active) | 7.5 µM (inactive) | 0.637 µM (active) | 5.56 µM (inactive) | 2.21 µM (inactive) | 3.19 µM (inactive) | 6.82 µM (inactive) | 1.17 µM (inactive)
3 | COc1ccc(-c2[nH]c3c4c(nc5c(c24)C(=O)CC(C)(C)C5)CC(C)(C)C3)cc1 | 11.4 µM (inactive) | 47.3 µM (inactive) | > 100 µM (inactive) | 28.6 µM (inactive) | 39.6 µM (inactive) | 70 µM (inactive) | 32.2 µM (inactive) | 95.5 µM (inactive) | > 100 µM (inactive) | 63.8 µM (inactive) | > 100 µM (inactive) | 54.5 µM (inactive) | > 100 µM (inactive) | 55.1 µM (inactive) | 50.9 µM (inactive) | > 100 µM (inactive) | 44.5 µM (inactive) | > 100 µM (inactive) | 48.8 µM (inactive)
4 | CC(C)Oc1c(C2(c3ccccc3O)SCCCS2)c(=O)c1=O | 20.5 µM (inactive) | 79.3 µM (inactive) | 73.3 µM (inactive) | 62.8 µM (inactive) | 19.7 µM (inactive) | > 100 µM (inactive) | > 100 µM (inactive) | > 100 µM (inactive) | > 100 µM (inactive) | > 100 µM (inactive) | > 100 µM (inactive) | 23.6 µM (inactive) | > 100 µM (inactive) | 54.2 µM (inactive) | 69.2 µM (inactive) | > 100 µM (inactive) | 38.9 µM (inactive) |  | > 100 µM (inactive)
5 | O=C(NCC1Nc2ccncc2S(=O)(=O)N1)c1ccc(Br)cc1 (centres undefined) |  | 30.8 µM (inactive) | 81.3 µM (inactive) | > 100 µM (inactive) | 34.4 µM (inactive) | 43.9 µM (inactive) | > 100 µM (inactive) | 27.4 µM (inactive) | 41.2 µM (inactive) | > 100 µM (inactive) | 92.5 µM (inactive) | 28.2 µM (inactive) | > 100 µM (inactive) | 30.1 µM (inactive) | 20.1 µM (inactive) | > 100 µM (inactive) | > 100 µM (inactive) | 28.8 µM (inactive) | 59.8 µM (inactive)
6 | COC(=O)[C@H]1CO[C@H]2C/C(C)=C/CC/C(C)=C/CC[C@@]3(C)O[C@@H]3C[C@H]21 | 10 µM (inactive) | 10.1 µM (inactive) | > 50 µM (inactive) | 22.9 µM (inactive) | 17.5 µM (inactive) | 9.91 µM (inactive) | 16.3 µM (inactive) | 19.6 µM (inactive) | 10.4 µM (inactive) | 10.8 µM (inactive) | 13.4 µM (inactive) | 8.79 µM (inactive) | 20 µM (inactive) | 10.7 µM (inactive) | 10.8 µM (inactive) | 15.8 µM (inactive) | 20.5 µM (inactive) |  | 10.7 µM (inactive)
7 | COC(=O)c1c(C)ccc2c(O)c3c(cc12)C(=O)c1c2c(cc(O)c1C3=O)C1(C)OC(C)(O2)C(O)C(N(C)C)C1O (centres undefined) | 0.283 µM (active) | 2.41 µM (inactive) | 1.35 µM (inactive) | 1.57 µM (inactive) | 1.82 µM (inactive) | 0.643 µM (active) | 0.767 µM (active) | 1.05 µM (active) | 0.869 µM (active) | 1.82 µM (inactive) | 4.37 µM (inactive) | 1.22 µM (inactive) | 1.4 µM (inactive) | 3.98 µM (inactive) | 1.38 µM (inactive) | 1.74 µM (inactive) | 2.76 µM (inactive) | 2.62 µM (inactive) | 2.79 µM (inactive)
8 | Nc1nc(Nc2ccc(Cl)cc2)sc1C(=O)c1c[nH]c2ccccc12 | 15 µM (inactive) | 13.8 µM (inactive) | 14.3 µM (inactive) | 7.94 µM (inactive) | 20 µM (inactive) | 11.1 µM (inactive) | 4.66 µM (inactive) | 21.4 µM (inactive) | 15.7 µM (inactive) | 3.8 µM (inactive) | 15.4 µM (inactive) |  | 13 µM (inactive) | 15.7 µM (inactive) | 17.9 µM (inactive) | 21 µM (inactive) | 8.32 µM (inactive) | 16.4 µM (inactive) | 12.4 µM (inactive)
9 | COC(=O)CCSC1=CC(=O)c2nc3ccccc3c3ccnc1c23 | 4.49 µM (inactive) | 2.68 µM (inactive) | > 100 µM (inactive) | > 84.7 µM (inactive) | 25.7 µM (inactive) | 20.1 µM (inactive) | 19.9 µM (inactive) | 15.1 µM (inactive) | 22.2 µM (inactive) | 13.6 µM (inactive) | 21.9 µM (inactive) | 1.39 µM (inactive) | 14.2 µM (inactive) | 3.61 µM (inactive) | 27.5 µM (inactive) | 33 µM (inactive) | 18.7 µM (inactive) |  | 15.3 µM (inactive)
10 | Cc1sc2nc(N(C)C)oc(=O)c2c1C | 94.6 µM (inactive) |  | > 100 µM (inactive) | 81.3 µM (inactive) | > 100 µM (inactive) | > 100 µM (inactive) | > 100 µM (inactive) | 7.01 µM (inactive) | > 100 µM (inactive) | > 100 µM (inactive) | > 100 µM (inactive) | 30.8 µM (inactive) | > 100 µM (inactive) | 37.9 µM (inactive) | > 100 µM (inactive) | 51.5 µM (inactive) | 58.7 µM (inactive) | > 100 µM (inactive) | 70 µM (inactive)
11 | CCO/C=N\C1=C(C#N)SC2=N/C(=C\c3ccco3)C(=O)N21 | > 100 µM (inactive) | > 100 µM (inactive) | > 100 µM (inactive) | > 100 µM (inactive) | > 100 µM (inactive) | > 100 µM (inactive) | > 100 µM (inactive) | > 100 µM (inactive) | > 100 µM (inactive) | > 100 µM (inactive) | > 100 µM (inactive) | > 100 µM (inactive) | > 100 µM (inactive) | > 100 µM (inactive) | > 100 µM (inactive) | > 100 µM (inactive) | > 100 µM (inactive) | > 100 µM (inactive) | > 100 µM (inactive)
12 | COC(=O)/C(C#N)=C(/NCc1ccccc1)Nc1ccccc1 |  | 72.3 µM (inactive) | > 100 µM (inactive) | > 100 µM (inactive) | 81.7 µM (inactive) | 63 µM (inactive) | 92.5 µM (inactive) | > 100 µM (inactive) | > 100 µM (inactive) | 73.1 µM (inactive) | > 100 µM (inactive) | 55.7 µM (inactive) | > 100 µM (inactive) | 27.8 µM (inactive) | 69.7 µM (inactive) | > 100 µM (inactive) | 79.3 µM (inactive) | > 100 µM (inactive) | 51.1 µM (inactive)
13 | CNC1C(O)C(OC2C(N)CC(N)C(OC3OC(CN)=CCC3N)C2O)OCC1(C)O (centres undefined) | > 100 µM (inactive) | > 100 µM (inactive) | > 100 µM (inactive) | > 100 µM (inactive) | > 100 µM (inactive) | > 100 µM (inactive) | > 100 µM (inactive) | > 100 µM (inactive) | > 100 µM (inactive) | > 100 µM (inactive) | > 100 µM (inactive) | > 100 µM (inactive) |  | > 100 µM (inactive) | > 100 µM (inactive) | > 100 µM (inactive) | > 100 µM (inactive) | > 100 µM (inactive) | > 100 µM (inactive)
14 | COc1ccc2c(c1)OCC1Cc3ccccc3OC21 (centres undefined) | > 100 µM (inactive) | > 100 µM (inactive) |  | > 10 µM (inactive) | > 100 µM (inactive) | > 100 µM (inactive) | > 100 µM (inactive) | > 100 µM (inactive) | > 100 µM (inactive) | > 100 µM (inactive) |  | > 100 µM (inactive) | > 100 µM (inactive) | > 100 µM (inactive) | > 100 µM (inactive) | > 100 µM (inactive) | > 100 µM (inactive) | > 100 µM (inactive) | > 100 µM (inactive)
15 | CC1CN=C(N(C(=O)Nc2ccccc2)c2ccc(Cl)c(Cl)c2)S1 (centres undefined) | > 10 µM (inactive) | > 10 µM (inactive) | 70.6 µM (inactive) | 14.3 µM (inactive) | 17.1 µM (inactive) | 23.1 µM (inactive) | 31.1 µM (inactive) | 61 µM (inactive) | 30.5 µM (inactive) | > 10 µM (inactive) | 40.6 µM (inactive) |  | 28.2 µM (inactive) | 30.3 µM (inactive) | 18.2 µM (inactive) | 97.3 µM (inactive) | 14.4 µM (inactive) | 38 µM (inactive) | 20.7 µM (inactive)
